Assay results taken from US9663473B2 (Actelion Pharmaceuticals Ltd, priority 2013, dated 2017).
Where a name gives a salt, the structure may show the parent alone.

target: T1, recombinant human ALX receptor (Homo sapiens, UniProt P25090); assay: Intracellular calcium measurements (FLIPR), ALX receptor agonistic activity; assay type: cell-based; conditions: HEK293-hALXR-Gα16 cells, Fluo-4 calcium signal, normalized to WKYMVm 10 nM
T1 construct: expressed in transfected cells; host or cells: HEK293 (HEK293-hALXR-Gα16)
T1 sequence (P25090 1-351): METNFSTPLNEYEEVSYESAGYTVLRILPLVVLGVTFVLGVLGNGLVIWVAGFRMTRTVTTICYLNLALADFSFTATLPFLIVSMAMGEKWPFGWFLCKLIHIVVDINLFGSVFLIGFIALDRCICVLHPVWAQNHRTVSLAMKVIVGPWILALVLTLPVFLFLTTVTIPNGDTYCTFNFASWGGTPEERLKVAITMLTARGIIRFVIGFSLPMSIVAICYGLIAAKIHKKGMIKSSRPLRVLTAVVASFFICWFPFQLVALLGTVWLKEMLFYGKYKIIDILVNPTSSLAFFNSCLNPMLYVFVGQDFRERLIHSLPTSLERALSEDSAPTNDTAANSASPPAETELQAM
Summary of the method: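 Agonist-induced calcium flux was read by FLIPR (488/540 nm) as baseline-subtracted peak emission, expressed relative to WKYMVm at 10 nM final. Cells used: HEK293-hALXR-Gα16, dye-loaded 60 min at 37° C. with 1 μM Fluo-4 AM before compound dose-response addition.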

| Structure (SMILES) | EC50 [nM] |
| --- | --- |
| COc1ccc(C[C@@H](NC(=O)N[C@H]2CC[C@H](O)CC2)c2nc3cc(C)ccc3[nH]2)cc1 [Example 83, 1-(trans-4-Hydroxycyclohexyl)-3-((R)-2-(4-methoxyphenyl)-1-(5-methyl-1H-benzo[d]imidazol-2-yl)ethyl)urea] | 1.7 |
| COc1cc(F)c(CC(NC(=O)N[C@H]2CC[C@H](O)CC2)c2nc3ccccc3[nH]2)c(F)c1 (relative stereo) [Example 235, 1-(1-(1H-Benzo[d]imidazol-2-yl)-2-(2,6-difluoro-4-methoxyphenyl)ethyl)-3-(trans-4-hydroxycyclohexyl)urea] | 3.2 |
| O=C(NC(Cc1ccc(Br)c(F)c1)c1nc2ccc(F)cc2[nH]1)NC12CCC(O)(CC1)CC2 (single isomer, unassigned; ent-1) [Example 400, 1-(2-(4-bromo-3-fluorophenyl)-1-(6-fluoro-1H-benzo[d]imidazol-2-yl)ethyl)-3-(4-hydroxybicyclo[2.2.2]octan-1-yl)urea (ent-1)] | 2.6 |
| COc1ccc(C[C@@H](NC(=O)N[C@H](C)c2cccc(Cl)c2)c2nc3ccccc3[nH]2)cc1 [Example 324, 1-((R)-1-(1H-Benzo[d]imidazol-2-yl)-2-(4-methoxyphenyl)ethyl)-3-((R)-1-(3-chlorophenyl)ethyl)urea] | 712 |
| COc1ccc(C[C@@H](NC(=O)NC2CCN(CCF)CC2)c2nc3ccccc3[nH]2)cc1 [Example 181, (R)-1-(1-(1H-Benzo[d]imidazol-2-yl)-2-(4-methoxyphenyl)ethyl)-3-(1-(2-fluoroethyl)piperidin-4-yl)urea] | 88 |
| COc1ccc(C[C@@H](NC(=O)N[C@@H]2CCCNC2)c2nc3ccccc3[nH]2)cc1 [Example 131, 1-((R)-1-(1H-Benzo[d]imidazol-2-yl)-2-(4-methoxyphenyl)ethyl)-3-((R)-piperidin-3-yl)urea] | 15 |
| COc1ccc(C[C@@H](NC(=O)NC2CCN(Cc3ccccc3)C2)c2nc3ccccc3[nH]2)cc1 (stereo partly drawn) [Example 102, 1-((R)-1-(1H-Benzo[d]imidazol-2-yl)-2-(4-methoxyphenyl)ethyl)-3-(1-benzylpyrrolidin-3-yl)urea] | 376 |
| COc1ccc(C[C@@H](NC(=O)Nc2ccc(OC)cc2)c2nc3ccccc3[nH]2)cc1 [Example 104, (R)-1-(1-(1H-Benzo[d]imidazol-2-yl)-2-(4-methoxyphenyl)ethyl)-3-(4-methoxyphenyl)urea] | 257 |
| COc1ccc(C[C@@H](NC(=O)N[C@@H](C)C2CCCCC2)c2nc3ccccc3[nH]2)cc1 [Example 347, 1-((R)-1-(1H-Benzo[d]imidazol-2-yl)-2-(4-methoxyphenyl)ethyl)-3-((S)-1-cyclohexylethyl)urea] | 365 |
| COc1ccc(C[C@@H](NC(=O)NCCc2ccccc2F)c2nc3ccccc3[nH]2)cc1 [Example 68, (R)-1-(1-(1H-Benzo[d]imidazol-2-yl)-2-(4-methoxyphenyl)ethyl)-3-(2-fluorophenethyl)urea hydrochloride] | 217 |
| COc1ccc(C[C@@H](NC(=O)NC(CN2CCOCC2)c2ccccc2)c2nc3ccccc3[nH]2)cc1 (stereo partly drawn) [Example 214, 1-((R)-1-(1H-Benzo[d]imidazol-2-yl)-2-(4-methoxyphenyl)ethyl)-3-(2-morpholino-1-phenylethyl)urea] | 28 |
| O=C(NC(Cc1ccc(Br)cc1)c1nc2cc(Cl)ccc2[nH]1)N[C@H]1CC[C@H](O)CC1 (relative stereo) [Example 81, 1-(2-(4-Bromophenyl)-1-(5-chloro-1H-benzo[d]imidazol-2-yl)ethyl)-3-(trans-4-hydroxycyclohexyl)urea] | 1.4 |
| O=C(NC(Cc1ccc(C(F)(F)F)cc1F)c1nc2ccccc2[nH]1)N[C@H]1CC[C@H](O)CC1 (single isomer, unassigned; ent-1) [Example 399, 1-(1-(1H-Benzo[d]imidazol-2-yl)-2-(2-fluoro-4-(trifluoromethyl)phenyl)ethyl)-3-(trans-4-hydroxycyclohexyl)urea (ent-1)] | 1700 |
